Patent US9249159B2, “Composition for treating hepatitis C virus, regulating phosphorylation of replicase” (Industry-Academic Cooperation Foundation, Yonsei University, priority 2011, dated 2016)

Key:
PRK2 = target: T1, PRK2 (Homo sapiens, UniProt Q16513); assay: PRK2 phosphorylation (Thr816) and PRK2 level in R-1 cells by Western blot; type: cell-based; details: R-1 cell, 72 hours
T1 construct: endogenous in cells; host or cells: R-1 (Huh7-derived HCV replicon cells) and Huh7
Protocol: After the R-1 cell line was treated with the PRK2 inhibitor at a final concentration of 10 or 20 μM for 48 hours, phosphorylation or not of Thr^816 residue essential for activity of PRK2 was analyzed by Western blot using a phospho-PRK2 antibody to measure an expression level of phosphorylated PRK2. Immunoblotting using an anti-α-tubulin antibody was carried out to check whether or not the same amount of protein was loaded.
The levels of the proteins were measured by densitometric analysis of immunoblot, and the phosphorylated amounts and relative intensities calculated with respect to PDK1 and PDK2 were converted with respect to α-tubulin signals and then quantitated. As a result of three independent experiments showing similar results, a representative blot picture was illustrated.
Then, in order to check whether or not IFN-α affected a PDK1-PRK2 signaling pathway, the R-1 cell was treated with 100 IU/ml of IFN-α hourly for 6 hours. SDS-PAGE was carried out to the cell lysates, and immunoblotting was carried out. The immunoblotting with anti-α-tubulin antibody was used as an internal control for loading. A representative result from one of the three independent experiments showing a similar result was illustrated.

R-1 cell = assay: Cytotoxicity / cell viability in R-1 cell; type: cell-based, human; details: R-1 cell versus parental Huh7, 72 hours
Protocol: Cytotoxicity of 17-DMAG was measured by using a reagent MTS [3-(4,5-dimethylthiazol-2-yl)-5-(3-carboxylmethoxyphenyl)-2-(4-sulfophenyl)-2H-tetrazolium] (Promega, Madison, Wis., USA) according to the protocols of the manufacturer. The experiment was carried out as follows.
Huh7 or R-1 cells (2×10^4 cell/well) were seeded in a 96-well plate and treated with 17-DMAG at different concentrations for 72 hours. Then, the culture medium was removed and a MTS substrate dissolved in the culture medium containing 5% FBS was added to each well of the plate. The cells were cultured at 37° C. for 1 hour, and absorbance at 490 nm was read in a 96-well micro plate automatic reading system using GloMax-Multi detection system (Promega).
An experiment was carried out to check whether or not 17-DMAG inhibited virus RNA replication in an R-1 cell in which autonomous replication of a genotype 1b HCV subgenomic replicon RNA was maintained. Before antiviral activity of 17-DMAG was evaluated, an MTS assay was carried out to evaluate whether or not the drug interfered with cell viability. To be specific, the R-1 cell loaded with a selective HCV subgenomic replicon (upper diagram) and its parental cell line Huh7 were treated with 17-DMAG at a certain concentration for 72 hours, and cell viability was evaluated by the MTS assay.

PDK1 = assay: Steady state level of PDK1 in Huh7 cell by immunoblotting; type: cell-based; details: increasing concentration, 48 hours
Excerpt: (§1) Total cell lysates from cells treated with inhibitors or IFN-α by using antibodies to PDK1, p-PDK1 (S241), PRK2, and p-PRK2 (T816) (products of Cell Signaling Technology, Inc., Beverly, Mass., USA) was used for immunoblotting. In order to detect PKC isoforms α, β, and γ, a polyclonal antibody to a consensus sequence present in three PKC (protein kinase C) isoforms α, β and γ (anti-pan-PKC; Zymed Laboratories, San Francisco, Calif., USA) was used. An anti-α-tubulin antibody (Oncogene Research Products, Cambridge, Mass., USA) was carried out in immunoblotting for checking whether or not the same amount of protein was loaded.
(§2) In order to test whether or not PDK1 in Huh7 as an HCC cell line was destabilized by inhibition of Hsp90, 17-DMAG as a second-generation geldanamycin derivative known as being safer than geldanamycin or its derivative 17-AAG and effective for oral delivery was used (FIG. 8A). The Huh7 cell was treated for 48 hours along with an increase in concentration of 17-DMAG, and a steady state level of PDK1 was evaluated by immunoblotting.

pan-PKC (α, β, and γ) = assay: pan-PKC level in Huh7 cell by immunoblotting; type: cell-based; details: 48 hours
Excerpt: as §1, §2

Rho-kinase I (ROCKI) = assay: ROCKI level in Huh7 cell by immunoblotting; type: cell-based; details: 48 hours
HCV IRES = assay: Dual luciferase reporter assay of translation via HCV IRES in Huh7 cell; type: cell-based, hepatitis C virus; details: various concentrations, 72 hours
Excerpt: The dual luciferase expression vector allowing cap-dependent translation of a Renilla (RLuc) reporter and HCV internal ribosome entry site (IRES)-mediated luciferase translation of a firefly luciferase (FLuc) reporter was constructed by inserting the HCV IRES and partial core protein-coding region fused to the cDNA for FLuc downstream of the Renilla luciferase reporter gene as described previously. Huh7 cells were transiently transfected with the bicistronic dual luciferase vector using Fugene HD (Roche Applied Science, Indianapolis, Ind., USA). RLuc and FLuc activities in cell lysates were quantified using the Dual-Glo luciferase assay kit (Promega) on the GloMax-Multi detection system (Promega).
Then, in order to observe an effect of 17-DMAG on translation via HCV IRES, a dual reporter assay was carried out. The Huh7 cell was transfected by a dual reporter assay plasmid (FIG. 11B, upper diagram), and treated with 17-DMAG at various concentrations for 72 hours. […] A level of the Firefly luciferase […] and a Renilla luciferase […] was measured by dual luciferase assay and expressed in % with respect to a control treated with DMSO (first bar). […]

Huh7 cells = assay: Cell cycle analysis of Huh7 cells by flow cytometer; type: cell-based, human; details: 48 hours, 17-DMAG 500 nM
Protocol: The Huh7 cell treated with 17-DMAG or HA1077 for 48 hours was collected and washed with PBS. The cells were fixed with chilled ethanol for 30 min, treated with RNase A (100 μg/ml) for 5 min at room temperature, stained with 50 μg/mL propidium iodide (PI, Sigma-Aldrich) for 30 min at 37° C., and analyzed using a FACS Calibur flow cytometer (Becton Dickinson, San Jose, Calif., USA).
Then, a cell cycle assay was carried out by using a flow cytometer. Huh7 cells were treated with DMSO (0.25%) or 500 nM of 17-DMAG for 48 hours, and a cell cycle thereof was analyzed by using a flow cytometer to show the percentage of cells in G1, S, and G2/M phases. LY294002 as a PI3K inhibitor was used as a positive control.

T1 sequence (Q16513 whole entry): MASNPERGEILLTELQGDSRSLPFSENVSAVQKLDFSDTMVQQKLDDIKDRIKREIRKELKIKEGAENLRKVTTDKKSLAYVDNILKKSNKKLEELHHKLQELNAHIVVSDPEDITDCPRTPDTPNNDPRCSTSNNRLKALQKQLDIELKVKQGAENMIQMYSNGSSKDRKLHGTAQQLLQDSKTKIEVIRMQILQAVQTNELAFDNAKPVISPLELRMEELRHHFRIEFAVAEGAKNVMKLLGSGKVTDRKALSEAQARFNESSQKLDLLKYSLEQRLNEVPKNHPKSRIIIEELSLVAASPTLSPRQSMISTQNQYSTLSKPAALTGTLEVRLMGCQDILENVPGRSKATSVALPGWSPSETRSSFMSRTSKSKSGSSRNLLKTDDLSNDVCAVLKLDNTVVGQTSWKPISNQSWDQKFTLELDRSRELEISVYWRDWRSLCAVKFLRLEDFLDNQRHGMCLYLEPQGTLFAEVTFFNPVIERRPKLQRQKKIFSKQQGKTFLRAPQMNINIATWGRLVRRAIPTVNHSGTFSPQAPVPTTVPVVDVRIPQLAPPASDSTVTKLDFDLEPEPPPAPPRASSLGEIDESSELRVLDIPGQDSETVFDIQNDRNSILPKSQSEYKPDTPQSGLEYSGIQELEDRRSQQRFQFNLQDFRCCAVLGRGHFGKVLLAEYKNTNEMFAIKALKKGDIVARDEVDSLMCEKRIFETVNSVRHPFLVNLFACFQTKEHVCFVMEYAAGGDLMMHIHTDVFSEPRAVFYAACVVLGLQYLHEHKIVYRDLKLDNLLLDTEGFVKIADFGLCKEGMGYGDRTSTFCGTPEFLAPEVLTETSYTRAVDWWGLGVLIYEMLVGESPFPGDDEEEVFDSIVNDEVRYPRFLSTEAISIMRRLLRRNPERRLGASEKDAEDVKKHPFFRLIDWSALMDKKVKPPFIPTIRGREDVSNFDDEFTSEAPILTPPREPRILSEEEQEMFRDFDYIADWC

`CO[C@H]1/C=C\C=C(/C)C(=O)NC2=CC(=O)C(NCCN(C)C)=C(C[C@@H](C)C[C@H](OC)[C@H](O)[C@@H](C)/C=C(\C)[C@@H]1OC(N)=O)C2=O` [17-DMAG, 17-(dimethylaminoethylamino)-17-demethoxygeldanamycin] was tested, and the “stability of PRK2” value (PRK2; 50 nM) was “not affected”, the “level of p-PRK2” value (PRK2; 10 or 50 nM) was “decreased” and the “sensitivity of cell viability (MTS assay)” value (R-1 cell) was “more sensitive to 17-DMAG than the parental cell line Huh7”. For the same compound, the PDK1 level (PDK1) was “gradually and significantly decreased”, the “steady state content of pan-PKC (α, β, and γ)” value (pan-PKC (α, β, and γ)) was “not significantly affected” and the “steady state content of Rho-kinase I (ROCKI)” value (Rho-kinase I (ROCKI)) was “not significantly affected”. For the same compound, the “effect on translation via HCV IRES” value (HCV IRES) was “did not have an effect” and the “cell cycle (G1, S, G2/M phases)” value (Huh7 cells) was “not significantly changed”.
